The values that follow come from ChEMBL document CHEMBL4184269, “Novel aromatic sulfonyl naphthalene-based boronates as 20S proteasome inhibitors” (Bioorg Med Chem, 2018).

One data set has as its system MCF7. Put plainly: Antiproliferative activity against human MCF7 cells after 72 hrs by SRB assay. In kind it is functional, cell-based. On the technique in general: Sulforhodamine B stains cellular protein and so reports cell mass.
The subject of a further data set is MDA-MB-231. Description: Antiproliferative activity against human MDA-MB-231 cells after 72 hrs by SRB assay. In kind it is functional, cell-based.
The test system of another data set is A549. Put plainly: Antiproliferative activity against human A549 cells after 72 hrs by SRB assay. In kind it is functional, cell-based.
The target in data set [1] is T1, Proteasome Macropain subunit MB1 (Homo sapiens) (UniProt P28074).
T1 sequence (whole entry): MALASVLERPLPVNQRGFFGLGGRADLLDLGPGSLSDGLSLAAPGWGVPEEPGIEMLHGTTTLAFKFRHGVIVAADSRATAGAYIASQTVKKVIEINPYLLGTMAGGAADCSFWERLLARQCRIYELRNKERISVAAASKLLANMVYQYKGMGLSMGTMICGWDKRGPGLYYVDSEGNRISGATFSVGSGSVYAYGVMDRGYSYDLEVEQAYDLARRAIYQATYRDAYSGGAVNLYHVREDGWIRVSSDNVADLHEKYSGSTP
Description: Inhibition of chymotrypsin-like activity of human 20S proteasome at 100 nM using Suc-Leu-Leu-Val-Tyr-AMC as substrate by fluorescence assay relative to control.

The nature of data set [2]: Metabolic stability in Sprague-Dawley rat liver microsomes assessed as parent compound remaining at […] preincubated for 5 mins followed by NADPH addition measured after 40 mins by HPLC analysis. In kind it is ADME, microsome. Conditions: read-out: Stability. Background: Microsomes from liver hold many membrane-bound enzymes, among them those of drug oxidation.
The target of data set [3] is T1, Proteasome Macropain subunit MB1 (Homo sapiens). Put plainly: Inhibition of chymotrypsin-like activity of human 20S proteasome at 10 nM using Suc-Leu-Leu-Val-Tyr-AMC as substrate by fluorescence assay relative to control.

SMILES strings stand for the structures. pIC50: −log10 of the molar value.

As for `CC(C)C[C@H](NC(=O)C(C)Sc1cc(NS(=O)(=O)c2ccccc2)c2ccccc2c1O)B(O)O` (stereo in doubt; 3b) [listing 1 of 2 here], the negative logarithm of the IC50 (pIC50) in the data set on MCF7 (Homo sapiens, MCF7, 72 h) is 4.78; with MDA-MB-231 (mda-mb-231), 4.96; in the data set with A549 it was 5.35.
In data set [1], `CC(C)C[C@H](NC(=O)CSc1cc(NS(=O)(=O)c2cccs2)c2ccccc2c1O)B(O)O` returned an inhibition of 33.3%. In addition, the pIC50 is 5.02 in the data set on MCF7 (Homo sapiens, MCF7, 72 h) and 5.19 in the data set on MDA-MB-231 (Homo sapiens, MDA-MB-231, 72 h).
As for `CC(C)C[C@H](NC(=O)C(C)Sc1cc(NS(=O)(=O)c2ccc(Cl)cc2)c2ccccc2c1O)B(O)O` (stereo in doubt; 3c) [listing 1 of 2 here], the inhibition in data set [1] stood at 41.5%.
Take `CC(C)C[C@H](NC(=O)C(C)Sc1cc(NS(=O)(=O)c2ccccc2)c2ccccc2c1O)B(O)O` (stereo in doubt; 3b-1) [listing 1 of 2 here]: the values for the pIC50 with MCF7 (mcf7) and in the data set on MDA-MB-231 (mda-mb-231) were 4.95 and 5.29, respectively.
With `CC(C)C[C@H](NC(=O)[C@H](Cc1ccccc1)NC(=O)c1cnccn1)B(O)O` [BORTEZOMIB], the remaining at 40 min in data set [2] came out at 30%. In addition, the pIC50 with MCF7 (Homo sapiens, MCF7, 72 h) is 4.74; in the data set on MDA-MB-231 (Homo sapiens, MDA-MB-231, 72 h), 5.51. The inhibition in data set [3] came out at 51.2%.
Regarding `CC(C)C[C@H](NC(=O)C(C)Sc1cc(NS(=O)(=O)c2ccccc2)c2ccccc2c1O)B(O)O` (stereo in doubt; 3b-1) [listing 2 of 2 here], the inhibition in data set [1] worked out at 25.4%.
The compound `CC(C)C[C@H](NC(=O)CCSc1cc(NS(=O)(=O)c2ccc(Cl)cc2)c2ccccc2c1O)B(O)O` registered an inhibition in data set [1] of 52.5%. For the same compound, the negative-log IC50 (pIC50) was 5.16 with MCF7 (Homo sapiens, MCF7, 72 h) and 5.39 with MDA-MB-231 (Homo sapiens, MDA-MB-231, 72 h).
In the same order, the values of `CC(=O)Nc1ccc(S(=O)(=O)Nc2cc(SC(C)C(=O)N[C@@H](CC(C)C)B(O)O)c(O)c3ccccc23)cc1` (stereo not given in full) are 27.4%, 5.05 and 5.55.
For `Cc1ccc(S(=O)(=O)Nc2cc(SCC(=O)N[C@@H](CC(C)C)B(O)O)c(O)c3ccccc23)cc1`, in that order: 36.6%, 4.89 and 4.85.
For the compound `Cc1ccc(S(=O)(=O)Nc2cc(SC(C)C(=O)N[C@@H](CC(C)C)B(O)O)c(O)c3ccccc23)cc1` (stereo not given in full), the inhibition in data set [1] amounted to 35.5%. For the same compound, the pIC50 with MCF7 (Homo sapiens, MCF7, 72 h) was 5.06; with MDA-MB-231 (Homo sapiens, MDA-MB-231, 72 h) it was 5.09.
As to `CC(C)C[C@H](NC(=O)C(C)Sc1cc(NS(=O)(=O)c2ccc(Cl)cc2)c2ccccc2c1O)B(O)O` (stereo in doubt; 3c) [listing 2 of 2 here], the pIC50 with MCF7 (Homo sapiens, MCF7, 72 h) is 4.99; with MDA-MB-231 (Homo sapiens, MDA-MB-231, 72 h), 5.21; with A549, 4.78.
For the compound `CC(C)C[C@H](NC(=O)CSc1cc(NS(=O)(=O)c2ccccc2)c2ccccc2c1O)B(O)O`, the inhibition in data set [1] amounted to 32.5%. The negative-log IC50 (pIC50) is 5.38 with MCF7 (Homo sapiens, MCF7, 72 h) and 4.98 in the data set on MDA-MB-231 (Homo sapiens, MDA-MB-231, 72 h).
As to `CC(C)C[C@H](NC(=O)CCSc1cc(NS(=O)(=O)c2ccccc2)c2ccccc2c1O)B(O)O`, the inhibition in data set [1] is 45.6%. Also, the negative-log IC50 (pIC50) with MCF7 (Homo sapiens, MCF7, 72 h) is 5.13; with MDA-MB-231 (Homo sapiens, MDA-MB-231, 72 h), 5.38.
As for `CC(C)C[C@H](NC(=O)C(C)Sc1cc(NS(=O)(=O)c2ccc(Cl)cc2)c2ccccc2c1O)B(O)O` (stereo in doubt; 3c-1) [listing 1 of 2 here], the inhibition in data set [1] is 39.4%.
Take `CC(C)C[C@H](NC(=O)CSc1cc(NS(=O)(=O)c2ccc(Cl)cc2)c2ccccc2c1O)B(O)O`: in data set [1], the inhibition was 45.1%. In addition, the pIC50 in the data set on MCF7 (Homo sapiens, MCF7, 72 h) was 4.98; in the data set on MDA-MB-231 (Homo sapiens, MDA-MB-231, 72 h) it was 5.21.
`Cc1ccc(S(=O)(=O)Nc2cc(SCCC(=O)N[C@@H](CC(C)C)B(O)O)c(O)c3ccccc23)cc1` registered an inhibition in data set [1] of 54.2%. For the same compound, in data set [2], the remaining at 40 min was 56%. Also, the negative-log IC50 (pIC50) in the data set with MCF7 (Homo sapiens, MCF7, 72 h) was 5.16; with MDA-MB-231 (Homo sapiens, MDA-MB-231, 72 h), 5.21.
Take `CC(C)C[C@H](NC(=O)C(C)Sc1cc(NS(=O)(=O)c2ccc(Cl)cc2)c2ccccc2c1O)B(O)O` (stereo in doubt; 3c-1) [listing 2 of 2 here]: the results for the pIC50 with MCF7 (mcf7) and in the data set on MDA-MB-231 (mda-mb-231) were 4.97 and 5.19, respectively.
With `O=C(O)CSc1cc(NS(=O)(=O)c2cccs2)c2ccccc2c1O`, the inhibition in data set [1] is 6.86%.
Consider `CC(=O)Nc1ccc(S(=O)(=O)Nc2cc(SCC(=O)N[C@@H](CC(C)C)B(O)O)c(O)c3ccccc23)cc1`, for which the inhibition in data set [1] came out at 40.8%. For the same compound, the negative logarithm of the IC50 (pIC50) with MCF7 (Homo sapiens, MCF7, 72 h) is 5.06; in the data set on MDA-MB-231 (Homo sapiens, MDA-MB-231, 72 h), 5.35.
For `CC(=O)Nc1ccc(S(=O)(=O)Nc2cc(SCCC(=O)N[C@@H](CC(C)C)B(O)O)c(O)c3ccccc23)cc1`, in that order: 38.4%, 5.18 and 5.67.
`C[S+](C)[O-]` gave an inhibition in data set [1] of 4.89%.
`CC(C)C[C@H](NC(=O)CCSc1cc(NS(=O)(=O)c2cccs2)c2ccccc2c1O)B(O)O` registered an inhibition in data set [1] of 38.3%. Further, the pIC50 with MCF7 (Homo sapiens, MCF7, 72 h) was 5.19; with MDA-MB-231 (Homo sapiens, MDA-MB-231, 72 h) it was 5.35.
Regarding `CC(C)C[C@H](NC(=O)C(C)Sc1cc(NS(=O)(=O)c2ccccc2)c2ccccc2c1O)B(O)O` (stereo in doubt; 3b) [listing 2 of 2 here], the inhibition in data set [1] came out at 22.6%.
`CC(C)C[C@H](NC(=O)C(C)Sc1cc(NS(=O)(=O)c2cccs2)c2ccccc2c1O)B(O)O` (stereo not given in full) had an inhibition in data set [1] of 41.1%. The negative logarithm of the IC50 (pIC50) with MCF7 (Homo sapiens, MCF7, 72 h) was 4.83; with MDA-MB-231 (Homo sapiens, MDA-MB-231, 72 h), 5.13.

Broadly, the pIC50 is −log10 of the IC50, conventionally taken in molar units. High values mean a low IC50, low ones a high IC50. What is called inhibition is the relative decrease from the control value, in per cent. Low values mean a weak effect, high ones a strong effect.
